# Biological target: T1, STAT6 (Homo sapiens, UniProt P42226)
# T1 construct: stably transfected HaCaT keratinocyte cell line, which expresses NanoLuc luciferase reporter gene under the transcriptional control of the STAT6 responsive promoter; endogenous in cells; host or cells: HaCaT keratinocyte reporter cell line (stably transfected with a NanoLuc reporter)
# T1 sequence (P42226 1-847): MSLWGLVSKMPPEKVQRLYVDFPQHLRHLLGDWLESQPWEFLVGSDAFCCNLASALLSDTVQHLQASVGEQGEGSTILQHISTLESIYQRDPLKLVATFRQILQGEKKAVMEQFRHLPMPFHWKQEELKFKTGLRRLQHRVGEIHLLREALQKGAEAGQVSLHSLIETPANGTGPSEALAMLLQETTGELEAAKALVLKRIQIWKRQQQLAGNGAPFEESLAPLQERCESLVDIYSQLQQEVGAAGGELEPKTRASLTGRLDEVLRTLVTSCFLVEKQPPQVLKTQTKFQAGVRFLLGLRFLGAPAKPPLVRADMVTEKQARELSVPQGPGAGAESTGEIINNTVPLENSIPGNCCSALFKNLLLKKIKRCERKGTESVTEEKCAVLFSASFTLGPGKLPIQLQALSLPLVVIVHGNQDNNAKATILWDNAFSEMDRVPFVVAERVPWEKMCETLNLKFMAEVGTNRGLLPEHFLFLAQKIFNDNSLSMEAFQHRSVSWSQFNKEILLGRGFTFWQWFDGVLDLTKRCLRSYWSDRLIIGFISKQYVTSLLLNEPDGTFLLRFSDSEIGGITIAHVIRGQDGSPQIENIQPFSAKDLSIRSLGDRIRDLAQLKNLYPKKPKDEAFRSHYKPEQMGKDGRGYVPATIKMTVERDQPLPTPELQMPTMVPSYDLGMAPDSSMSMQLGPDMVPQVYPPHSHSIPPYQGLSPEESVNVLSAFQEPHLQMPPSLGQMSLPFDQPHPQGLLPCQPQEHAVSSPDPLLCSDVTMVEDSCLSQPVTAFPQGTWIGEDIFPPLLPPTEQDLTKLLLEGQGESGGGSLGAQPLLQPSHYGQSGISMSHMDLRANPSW
# Assay: STAT6 Reporter Luciferase Assay (IL-13 stimulated HaCaT keratinocyte NanoLuc reporter cells)
# Assay type: cell-based
# Details: IL-13 stimulated HaCaT STAT6 NanoLuc reporter cells; read-out: Reporter EC50
# Method in brief: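 Luminescence from a NanoLuc reporter driven by the STAT6-responsive IL-13Ra2 promoter in HaCaT keratinocytes serves as the read-out. Compounds are given 2 h before a 4 h stimulation with 0.12 nM IL-13.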
row,SMILES,EC50 [nM]
1,"CC(C)n1nc(C(=O)NCc2ccc(NC(=O)N(C)C)cc2)c2c1CCN(c1ccc(C(=O)N3CCc4ncccc4C3)cn1)C2 [Example 376, N-(4-(3,3-dimethylureido)benzyl)-1-isopropyl-5-(5-(5,6,7,8-tetrahydro-1,6-naphthyridine-6-carbonyl)pyridin-2-yl)-4,5,6,7-tetrahydro-1H-pyrazolo[4,3-c]pyridine-3-carboxamide]",10
2,"CC(C)n1nc(C(=O)NCc2ccc(NC(=O)N3CCC[C@@H](N(C)C)C3)c(F)c2)c2c1[C@@H](C)CN(c1ccc(C(=O)N(C)C)cc1)C2 [Example 682, (S)-N-(4-((R)-3-(dimethylamino)piperidine-1-carboxamido)-3-fluorobenzyl)-5-(4-(dimethylcarbamoyl)phenyl)-1-isopropyl-7-methyl-4,5,6,7-tetrahydro-1H-pyrazolo[4,3-c]pyridine-3-carboxamide]",4
3,"CC(=O)N[C@@H]1CCN(C(=O)c2ccc(N3CCc4c(c(C(=O)NCc5ccc(NC(=O)N(C)C)cc5)nn4C(C)C)C3)nc2)C1 [Example 211, (R)-5-(5-(3-acetamidopyrrolidine-1-carbonyl)pyridin-2-yl)-N-(4-(3,3-dimethylureido)benzyl)-1-isopropyl-4,5,6,7-tetrahydro-1H-pyrazolo[4,3-c]pyridine-3-carboxamide]",934
4,"CC(C)n1nc(C(=O)NCc2ccc(NC(=O)N3CCN4CCCC[C@@H]4C3)c(F)c2)c2c1[C@@H](C)CN(c1ccc(C(=O)N(C)C)cc1)C2 [Example 687, (R)-N-(4-(((S)-5-(4-(dimethylcarbamoyl)phenyl)-1-isopropyl-7-methyl-4,5,6,7-tetrahydro-1H-pyrazolo[4,3-c]pyridine-3-carboxamido)methyl)-2-fluorophenyl)octahydro-2H-pyrido[1,2-a]lpyrazine-2-carboxamide]",1
5,"COC[C@H]1CCCN1C(=O)c1ccc(N2CCc3c(c(C(=O)NCc4ccc(NC(=O)N(C)C)cc4)nn3C(C)C)C2)nc1 [Example 225, (R)-N-(4-(3,3-dimethylureido)benzyl)-1-isopropyl-5-(5-(2-(methoxymethyl)pyrrolidine-1-carbonyl)pyridin-2-yl)-4,5,6,7-tetrahydro-1H-pyrazolo[4,3-c]pyridine-3-carboxamide]",644
6,"CC(=O)N[C@H]1CCN(C(=O)c2ccc(N3CCc4c(c(C(=O)NCc5ccc(NC(=O)N(C)C)cc5)nn4C(C)C)C3)nc2)C1 [Example 193, (S)-5-(5-(3-Acetamidopyrrolidine-1-carbonyl)pyridin-2-yl)-N-(4-(3,3-dimethylureido)benzyl)-1-isopropyl-4,5,6,7-tetrahydro-1H-pyrazolo[4,3-c]pyridine-3-carboxamide]",372
7,"CC(C)n1nc(C(=O)NCc2ccc(NC(=O)N3CCN4CCC[C@@H]4C3)cc2)c2c1[C@@H](C)CN(c1ccc(C(=O)N(C)C)cn1)C2 [Example 691, (S)-5-(5-(dimethylcarbamoyl)pyridin-2-yl)-1-isopropyl-7-methyl-N-(4-((R)-octahydropyrrolo[1,2-a]pyrazine-2-carboxamido)benzyl)-4,5,6,7-tetrahydro-1H-pyrazolo[4,3-c]pyridine-3-carboxamide]",1
8,"CC(C)n1nc(C(=O)NCc2ccc(NC(=O)N3CCC(C)(N(C)C)C3)c(F)c2)c2c1[C@@H](C)CN(c1ccc(C(=O)N(C)C)cc1)C2 (stereo partly drawn) [Example 679, (7S)-N-(4-(3-(dimethylamino)-3-methylpyrrolidine-1-carboxamido)-3-fluorobenzyl)-5-(4-(dimethylcarbamoyl)phenyl)-1-isopropyl-7-methyl-4,5,6,7-tetrahydro-1H-pyrazolo[4,3-c]pyridine-3-carboxamide]",3
9,"CC(C)n1nc(C(=O)NCc2ccc(NC(=O)N(C)C)cc2)c2c1CCN(c1ccc(C(=O)N3CC[C@H](C#N)C3)cn1)C2 [Example 291, (S)-5-(5-(3-cyanopyrrolidine-1-carbonyl)pyridin-2-yl)-N-(4-(3,3-dimethylureido)benzyl)-1-isopropyl-4,5,6,7-tetrahydro-1H-pyrazolo[4,3-c]pyridine-3-carboxamide]",793
10,"CC(C)n1nc(C(=O)NCc2ccc(NC(=O)N3CCC4(CC3)CN(C)C4)c(F)c2)c2c1[C@@H](C)CN(c1ccc(C(=O)N(C)C)cc1)C2 [Example 647, (S)-5-(4-(dimethylcarbamoyl)phenyl)-N-(3-fluoro-4-(2-methyl-2,7-diazaspiro[3.5]nonane-7-carboxamido)benzyl)-1-isopropyl-7-methyl-4,5,6,7-tetrahydro-1H-pyrazolo[4,3-c]pyridine-3-carboxamide]",1
11,"CC(C)n1nc(C(=O)NCc2ccc(NC(=O)N(C)C)cc2)c2c1CCN(c1ccc(C(=O)N3CC(O)C3)cn1)C2 [Example 215, N-(4-(3,3-dimethylureido)benzyl)-5-(5-(3-hydroxyazetidine-1-carbonyl)pyridin-2-yl)-1-isopropyl-4,5,6,7-tetrahydro-1H-pyrazolo[4,3-c]pyridine-3-carboxamide]",276
12,"CC(C)n1nc(C(=O)NCc2ccc(NC(=O)N(C)C)cc2)c2c1CCN(c1ccc(C(=O)N3CCCC3CO)cn1)C2 (racemic) [Example 208, rac-(R)-N-(4-(3,3-dimethylureido)benzyl)-5-(5-(2-(hydroxymethyl)pyrrolidine-1-carbonyl)pyridin-2-yl)-1-isopropyl-4,5,6,7-tetrahydro-1H-pyrazolo[4,3-c]pyridine-3-carboxamide]",535
13,"CCn1nc(C(=O)NCc2ccc(NC(=O)N3CCN(C)CC3)cc2)c2c1C(C(F)(F)F)CN(c1ccc(C(=O)N(C)C)cn1)C2 (single isomer, unassigned) [Example 695, rel-(R or S)-5-(5-(dimethylcarbamoyl)pyridin-2-yl)-1-ethyl-N-(4-(4-methylpiperazine-1-carboxamido)benzyl)-7-(trifluoromethyl)-4,5,6,7-tetrahydro-1H-pyrazolo[4,3-c]pyridine-3-carboxamide]",32
14,"CC(C)n1nc(C(=O)NCc2ccc(NC(=O)N(C)C)cc2)c2c1CCN(c1ccc(C(=O)N3CCC(O)CC3)cn1)C2 [Example 295, N-(4-(3,3-dimethylureido)benzyl)-5-(5-(4-hydroxypiperidine-1-carbonyl)pyridin-2-yl)-1-isopropyl-4,5,6,7-tetrahydro-1H-pyrazolo[4,3-c]pyridine-3-carboxamide]",310
15,"CCN1CCN(C(=O)Nc2ccc(CNC(=O)c3nn(C(C)C)c4c3CN(c3ccc(C(=O)N(C)C)cc3)C[C@@H]4C)cc2)CC1 [Example 745, (S)-5-(4-(dimethylcarbamoyl)phenyl)-N-(4-(4-ethylpiperazine-1-carboxamido)benzyl)-1-isopropyl-7-methyl-4,5,6,7-tetrahydro-1H-pyrazolo[4,3-c]pyridine-3-carboxamide]",1
16,"CC(C)n1nc(C(=O)NCc2ccc(NC(=O)N(C)C)cc2)c2c1CCN(c1ccc(C(=O)N3CC(C#N)C3)cn1)C2 [Example 210, 5-(5-(3-cyanoazetidine-1-carbonyl)pyridin-2-yl)-N-(4-(3,3-dimethylureido)benzyl)-1-isopropyl-4,5,6,7-tetrahydro-1H-pyrazolo[4,3-c]pyridine-3-carboxamide]",1060
17,"CC(C)n1nc(C(=O)NCc2ccc(NC(=O)N(C)C)cc2)c2c1CCN(c1ccc(C(=O)N3CCOCC3)cn1)C2 [Example 206, N-(4-(3,3-dimethylureido)benzyl)-1-isopropyl-5-(5-(morpholine-4-carbonyl)pyridin-2-yl)-4,5,6,7-tetrahydro-1H-pyrazolo[4,3-c]pyridine-3-carboxamide]",97
18,"CC(C)n1nc(C(=O)NCc2ccc(NC(=O)N3CCN(C)CC3)cc2)c2c1C(C(F)(F)F)CN(c1ccc(C(=O)N(C)C)cc1)C2 (single isomer, unassigned) [Example 705, rel-(R or S)-5-(4-(dimethylcarbamoyl)phenyl)-1-isopropyl-N-(4-(4-methylpiperazine-1-carboxamido)benzyl)-7-(trifluoromethyl)-4,5,6,7-tetrahydro-1H-pyrazolo[4,3-c]pyridine-3-carboxamide]",0.2
19,"CC(=O)NC1(C)CN(C(=O)c2ccc(N3CCc4c(c(C(=O)NCc5ccc(NC(=O)N(C)C)cc5)nn4C(C)C)C3)nc2)C1 [Example 330, 5-(5-(3-acetamido-3-methylazetidine-1-carbonyl)pyridin-2-yl)-N-(4-(3,3-dimethylureido)benzyl)-1-isopropyl-4,5,6,7-tetrahydro-1H-pyrazolo[4,3-c]pyridine-3-carboxamide]",1980

# Source: patent US20250320213A1, “Nitrogen-Containing Heterocyclic Compounds” (Pfizer Inc., priority 2024, published 2025)
